Data: BigSolDB 2.1

O=C(O)c1cccnc1
Conditions	solubility (mole fraction)
in DMSO, 293.56 K	0.0597
in DMSO, 303.38 K	0.074
in DMSO, 313.07 K	0.0911
in DMSO, 322.84 K	0.109
in DMSO, 332.36 K	0.131
in acetone, 285.46 K	0.000733
in acetone, 292.26 K	0.00114
in acetone, 296.8 K	0.00137
in acetone, 302.14 K	0.00161
in acetone, 307.1 K	0.00231
in acetone, 317.11 K	0.00318
in acetonitrile, 283.3 K	7.12e-05
in acetonitrile, 288.51 K	0.00012
in acetonitrile, 293.01 K	0.00017
in acetonitrile, 297.58 K	0.000185
in acetonitrile, 302.63 K	0.000268
in acetonitrile, 306.91 K	0.000354
in acetonitrile, 312.49 K	0.000475
in acetonitrile, 316.21 K	0.000547
in acetonitrile, 322.45 K	0.000715
in acetonitrile, 332.32 K	0.00107
in diethyl ether, 283.45 K	0.000322
in diethyl ether, 285.74 K	0.000379
in diethyl ether, 290.57 K	0.000539
in diethyl ether, 294.02 K	0.000618
in diethyl ether, 298.66 K	0.000813
in ethanol, 283.38 K	0.00224
in ethanol, 293.46 K	0.00309
in ethanol, 303.15 K	0.00423
in ethanol, 312.83 K	0.00605
in ethanol, 322.64 K	0.00843
in ethanol, 332.43 K	0.0115
in water, 283.59 K	0.00172
in water, 293.41 K	0.00218
in water, 303.03 K	0.00281
in water, 312.49 K	0.00475
in water, 312.97 K	0.00365
in water, 316.21 K	0.00547
in water, 322.45 K	0.00715
in water, 322.83 K	0.00465
in water, 332.01 K	0.00586
in water, 332.32 K	0.0107
